The subject of data set [1] is Rattus norvegicus. Kind of data set: Antiinflammatory activity against carrageenan-induced paw edema Sprague-Dawley rat model assessed as inhibition of paw edema by measuring edema thickness at 50 mg/kg, po measured after 1 hr (reference value: 0.71 +/- 0.03 mm). The format is functional. A general note: Carrageenan injected into the paw causes an acute inflammation.

In data set [2] the test system is Rattus norvegicus. Kind of data set: Antiinflammatory activity against carrageenan-induced paw edema Sprague-Dawley rat model assessed as inhibition of paw edema by measuring edema thickness at 50 mg/kg, po measured after 3 hrs (reference value: 1.41 +/- 0.13 mm). It counts as functional.
Data set [3] deals with Rattus norvegicus. Kind of data set: Antiinflammatory activity against carrageenan-induced paw edema Sprague-Dawley rat model assessed as inhibition of paw edema by measuring edema thickness at 50 mg/kg, po measured after 5 hrs (reference value: 1.39 +/- 0.11 mm). It counts as functional.
The test system of data set [4] is Rattus norvegicus. Kind of data set: Antiinflammatory activity against carrageenan-induced paw edema Sprague-Dawley rat model assessed as inhibition of inflammation at 50 mg/kg, po after 1 hr relative to control. The format is functional. More on the design: scale not given: the % may be the effect or the level left.
Data set [5] in a line: Acute ulcerogenic activity in Sprague-Dawley male rat assessed as incidence of ulcer/10 animal at 50 mg/kg/day, po administered for 3 days. To be noted: in vivo, 72 h, time 3 day. It counts as toxicity, organism-based.
Data set [6] can be described thus: Acute ulcerogenic activity in Sprague-Dawley male rat assessed as average number of ulcers at 50 mg/kg/day, po administered for 3 days. To be noted: in vivo, 72 h, time 3 day. It counts as toxicity, organism-based.
The nature of data set [7]: Acute ulcerogenic activity in Sprague-Dawley male rat assessed as average severity of ulcers at 50 mg/kg/day, po administered for 3 days. The format is toxicity, organism-based. To be noted: in vivo, 72 h, time 3 day.
A short description of data set [8]: Acute ulcerogenic activity in Sprague-Dawley male rat assessed as ulcer index at 50 mg/kg/day, po administered for 3 days. It counts as toxicity, organism-based. Conditions: in vivo, 72 h, time 3 day.
Data set [9] in a line: Acute ulcerogenic activity in Sprague-Dawley male rat assessed as abnormal structure of the gastric layer by measuring deeply congested blood vessels and aggregated of inflammatory cells at 50 mg/kg/day, po administered for 3 days by hematoxylin and eosin staining method. The format is toxicity, organism-based, Stomach. To be noted: in vivo, 72 h, time 3 day.
Data set [10] can be described thus: Acute ulcerogenic activity in Sprague-Dawley male rat assessed as abnormal structure of the gastric layer by measuring inflammatory cells infiltration in lamina propria at 50 mg/kg/day, po administered for 3 days by hematoxylin and eosin staining method. It counts as toxicity, organism-based, Stomach. To be noted: in vivo, 72 h, time 3 day.
Data set [11] is described as follows: Acute ulcerogenic activity in Sprague-Dawley male rat assessed as abnormal structure of the gastric layer by measuring infiltration of lymphocytes in lamina propria at 50 mg/kg/day, po administered for 3 days by hematoxylin and eosin staining method. It counts as toxicity, organism-based, Stomach. To be noted: in vivo, 72 h, time 3 day.
Data set [12] is described as follows: Acute ulcerogenic activity in Sprague-Dawley male rat assessed as abnormal structure of the gastric layer by measuring infiltration of macrophages in lamina propria at 50 mg/kg/day, po administered for 3 days by hematoxylin and eosin staining method. It counts as toxicity, organism-based, Stomach. Conditions: in vivo, 72 h, time 3 day.
Data set [13] in a line: Acute ulcerogenic activity in Sprague-Dawley male rat assessed as abnormal structure of the gastric layer by measuring infiltration of lymphocytes in submucosa at 50 mg/kg/day, po administered for 3 days by hematoxylin and eosin staining method. It counts as toxicity, organism-based, Stomach. Conditions: in vivo, 72 h, time 3 day.
A short description of data set [14]: Acute ulcerogenic activity in Sprague-Dawley male rat assessed as abnormal structure of the gastric layer by measuring infiltration of macrophages in submucosa at 50 mg/kg/day, po administered for 3 days by hematoxylin and eosin staining method. It counts as toxicity, organism-based, Stomach. To be noted: in vivo, 72 h, time 3 day.
Data set [15] in a line: Acute ulcerogenic activity in Sprague-Dawley male rat assessed as abnormal structure of the gastric layer by measuring glandular hyperactivation in submucosa at 50 mg/kg/day, po administered for 3 days by hematoxylin and eosin staining method. To be noted: in vivo, 72 h, time 3 day. The format is toxicity, organism-based, Stomach.
The subject of a further data set is MCF7. Kind of data set: Cytotoxicity against human MCF7 cells assessed as inhibition in cell growth incubated for 72 hrs by MTT assay. The format is functional, cell-based. Conditions: MCF7, 72 h.
For a further data set, the system named is HT-29. Kind of data set: Cytotoxicity against human HT-29 cells assessed as inhibition in cell growth incubated for 72 hrs by MTT assay. The format is functional, cell-based. Conditions: HT-29, 72 h. (In general: Tetrazolium dyes change colour on reduction, which living cells bring about.)
The next data set relates to A2780. In words: Cytotoxicity against human A2780 cells assessed as inhibition in cell growth incubated for 72 hrs by MTT assay. To be noted: A2780, 72 h. It counts as functional, cell-based.
Data set [16] has as its system Rattus norvegicus. In words: Antiinflammatory activity against carrageenan-induced paw edema Sprague-Dawley rat model assessed as inhibition of inflammation at 50 mg/kg, po after 5 hrs relative to control. The format is functional. More on the design: scale not given: the % may be the effect or the level left.
Data set [17] is described as follows: Acute ulcerogenic activity in Sprague-Dawley male rat assessed as nonactivated glands in intact mucosa at 50 mg/kg/day, po administered for 3 days by hematoxylin and eosin staining method. It counts as toxicity, organism-based, Stomach. Conditions: in vivo, 72 h, time 3 day.
A short description of data set [18]: Acute ulcerogenic activity in Sprague-Dawley male rat assessed as congestion in intact mucosa at 50 mg/kg/day, po administered for 3 days by hematoxylin and eosin staining method. It counts as toxicity, organism-based, Stomach. To be noted: in vivo, 72 h, time 3 day.
The nature of data set [19]: Acute ulcerogenic activity in Sprague-Dawley male rat by measuring filtration of inflammatory cells in edema at 50 mg/kg/day, po administered for 3 days by hematoxylin and eosin staining method. It counts as toxicity, organism-based, Stomach. Conditions: in vivo, 72 h, time 3 day.

This is an account of results in ChEMBL document CHEMBL5625227, “Discovery and optimization of 2,3-diaryl-1,3-thiazolidin-4-one-based derivatives as potent and selective cytotoxic agents with anti-inflammatory activity” (Eur J Med Chem, 2023).

The IC50 is the concentration that gives 50% inhibition.

With `COc1ccc2c(c1)c(CC(=O)O)c(C)n2C(=O)c1ccc(Cl)cc1` [INDOMETHACIN], the Activity in the data set with Rattus norvegicus [1] is listed as 0.41 mm; in the data set with Rattus norvegicus [2], 0.22 mm; with Rattus norvegicus [3], 0.24 mm; with Rattus norvegicus [4] it was 42.25%; in data set [5], 10%; in data set [6], 11.33. In addition, the Activity in data set [7] was 1; in data set [9], “Toxic”; in data set [10], “Toxic”; in data set [11], “Toxic”; in [12], “Toxic”; in data set [13] it was “Toxic”. Besides, the Activity entry in data set [14] and in data set [15] was “Toxic” in each case. Also, in [8], the UI amounted to 22.33.
For `Cc1ccc(-c2cc(C(F)(F)F)nn2-c2ccc(S(N)(=O)=O)cc2)cc1` [CELECOXIB], the IC50 in the data set on MCF7 came to 15.4 µM; in the data set with HT-29 it was 32.5 µM; in the data set with A2780, 18.1 µM. Moreover, the Activity was found to be 0.27 mm in the data set on Rattus norvegicus [1]; 0.34 mm with Rattus norvegicus [2]; 0.5 mm in the data set with Rattus norvegicus [3]; 61.97% with Rattus norvegicus [4]; 64.03% in the data set on Rattus norvegicus [16]; 6.67% in [5]. In addition, the Activity is given as 0.67 in data set [6]; 1 in [7]; “Non-Toxic” in data set [17]; “Toxic” in data set [18]; “Non-Toxic” in data set [19]. The UI in data set [8] stood at 8.34.
